Measurements: US5861476A, “Peptides and compounds that bind to the IL-1 receptor” (Affymax Technologies N.V., priority 1995, dated 1999)
Read-outs that look alike come from different tables or passages of the source. Where a SMILES comes first, the peptide text is derived from it. Where no end group is shown, it is not given here. [ ]: non-standard residue; d: D form. pY = N[C@@H](Cc1ccc(OP(=O)(O)O)cc1)C(=O)O; 1Nal = N[C@@H](Cc1cccc2ccccc12)C(=O)O; Aze = O=C(O)[C@@H]1CCN1

Columns and labels:
[1] = target: T1, IL-1 induced down-regulation of the epidermal growth factor (EGF) receptor in normal human dermal fibroblasts (NHDF) (Homo sapiens, UniProt P14778); experiment: Epidermal Growth Factor Receptor Down Regulation Assay; format: cell-based; conditions: 37° C., in the presence of IL-1α, 125I-labeled EGF binding, read-out: IC50 (approximate concentration which blocked 50% of the IL-1 induced down regulation of the EGF receptor)
T1 sequence (P14778 18-569): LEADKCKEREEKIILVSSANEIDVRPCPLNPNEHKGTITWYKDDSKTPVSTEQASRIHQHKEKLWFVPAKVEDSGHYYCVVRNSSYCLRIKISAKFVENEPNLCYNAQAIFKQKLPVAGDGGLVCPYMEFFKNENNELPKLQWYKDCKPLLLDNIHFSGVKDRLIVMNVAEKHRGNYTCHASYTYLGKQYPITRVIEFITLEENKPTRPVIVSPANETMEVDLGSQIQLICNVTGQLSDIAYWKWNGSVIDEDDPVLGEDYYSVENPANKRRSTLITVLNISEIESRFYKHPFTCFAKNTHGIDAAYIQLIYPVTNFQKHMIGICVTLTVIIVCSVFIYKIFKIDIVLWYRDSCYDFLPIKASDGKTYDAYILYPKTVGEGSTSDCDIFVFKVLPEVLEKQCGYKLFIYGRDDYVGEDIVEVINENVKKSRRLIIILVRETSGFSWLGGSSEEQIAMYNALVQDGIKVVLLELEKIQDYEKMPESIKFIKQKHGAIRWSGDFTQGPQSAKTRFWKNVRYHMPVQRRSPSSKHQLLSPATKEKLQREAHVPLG
From the text: The protocol set forth in Bird and Saklatvala (1989) J. Immunol. […] This assay examines the effect of the compounds of the invention on the IL-1 induced down-regulation of the epidermal growth factor (EGF) receptor as measured by the binding of ^125 I-labeled EGF to its receptor in normal human dermal fibroblasts (NHDF). […] The table below lists the approximate concentration of representative peptides of the invention which blocked 50% of the IL-1 induced down regulation of the EGF receptor. IC50 values are indicated symbolically by the symbols "-", "+", and "++". […] Those peptides which give IC50 values of less than or equal to 100 μM are given a "+", while those which give IC50 values of 500 nM or less are indicated with a "++". Those peptides which give IC50 values at or near the cutoff point for a particular symbol are indicated with a hybrid, e.g. "±". Those peptides for which IC50 values were not determined are listed as "N.D".

[2] = target: T2, IL-1 induced E-selectin in HUVEC cells (Homo sapiens, UniProt P14778); experiment: Peptide Effects on IL-1 Induced E-Selectin (HUVEC Cells); format: cell-based; conditions: 120 pM IL-1α, read-out: IC50 (concentration required to inhibit 50% of IL-1 induced E-selectin expression)
T2 sequence (P14778 18-569): T1 sequence (P14778 18-569)
Protocol: The compounds of the present invention were assayed for their ability to inhibit the expression of IL-1 induced E-selectin in HUVEC cells (human umbilical vein endothelial cells). HUVEC cells are grown to confluency in the wells of a 24-well microtiter plate. The compounds were serially diluted in DMEM/F12+0.1% BSA ("SFM"with 120 pM IL-1α. The cells were washed and then incubated with IL-1α and the compound to be tested for 15 minutes. The cells were again washed and incubated in SFM for 4 hours. The cells were washed and incubated with anti-selectin antibody for 30 minutes. Following antibody incubation, the cells were incubated with ^125 I Protein A and washed. The amount of ^125 I bound to the cells was then determined. The concentration of compounds required to inhibit 50% of IL-1 induced E-selectin expression is shown below.

[3] = target: T3, IL-1RtI (Homo sapiens, UniProt P14778); experiment: Inhibition of 125I-IL-1α binding to IL-1RtI (Example 3)
T3 construct: made in house; host or cells: recombinant host cells (one form soluble from baculovirus transformed host cells; another PIG-tailed and cleaved from the cell surface)
T3 sequence (P14778 18-336): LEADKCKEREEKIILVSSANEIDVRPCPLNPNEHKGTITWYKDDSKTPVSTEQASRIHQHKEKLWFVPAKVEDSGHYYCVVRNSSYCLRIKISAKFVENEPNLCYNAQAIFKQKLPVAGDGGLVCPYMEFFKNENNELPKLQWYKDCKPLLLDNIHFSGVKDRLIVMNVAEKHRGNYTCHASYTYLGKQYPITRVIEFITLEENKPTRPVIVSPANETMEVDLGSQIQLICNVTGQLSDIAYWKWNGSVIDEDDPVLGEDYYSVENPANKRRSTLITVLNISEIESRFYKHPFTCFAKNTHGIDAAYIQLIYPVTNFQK
In short: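 Competition with 90 pM 125I-IL-1α was run in duplicate for 2 h at 4 °C in HEPES-buffered RPMI with 1% BSA, pH 7.2-7.3, against either antibody-captured truncated receptor or cells with full-length IL-1RtI. Gamma counting of NaOH-detached material gave approximate IC50; high-affinity peptides used 24-well format.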

[4] = inhibition of 125I-IL-1α binding to IL-1RtI, soluble peptide unless marked *

Compound | IC50 [1] | IC50 [2] | IC50 [3, 4] | IC50 [3]
CC(=O)N[C@@H](Cc1ccccc1)C(=O)N[C@@H](CCC(=O)O)C(=O)N[C@@H](Cc1c[nH]c2ccccc12)C(=O)N[C@H](C(=O)N1CCC[C@H]1C(=O)NCC(=O)N[C@@H](Cc1ccc(O)cc1)C(=O)N[C@@H](Cc1c[nH]c2ccccc12)C(=O)N[C@@H](CCC(N)=O)C(=O)N1CC[C@H]1C(=O)N[C@@H](Cc1ccc(O)cc1)C(N)=O)[C@@H](C)O [AcFEWTPGYWQJY--NH2] (Ac-FEWTPGYWQ[Aze]Y-NH2) | ≤ 100000 nM | ≤ 500 nM | ≤ 500 nM | –
CC(=O)N[C@@H](Cc1ccccc1)C(=O)N[C@@H](CCC(=O)O)C(=O)N[C@@H](Cc1c[nH]c2ccccc12)C(=O)N[C@H](C(=O)N1CCC[C@H]1C(=O)NCC(=O)N[C@@H](Cc1ccc(O)cc1)C(=O)N[C@@H](Cc1ccc(O)cc1)C(=O)N[C@@H](CCC(N)=O)C(=O)N1CC[C@H]1C(=O)N[C@@H](Cc1ccc(O)cc1)C(N)=O)[C@@H](C)O [AcFEWTPGYYQJY--NH2] (Ac-FEWTPGYYQ[Aze]Y-NH2) | 500 nM | ≤ 500 nM | – | –
CC(=O)N[C@@H](Cc1ccccc1)C(=O)N[C@@H](CCC(=O)O)C(=O)N[C@@H](Cc1c[nH]c2ccccc12)C(=O)N[C@H](C(=O)N1CCC[C@H]1C(=O)N[C@H](C)C(=O)N[C@@H](Cc1c[nH]c2ccccc12)C(=O)N[C@@H](Cc1ccc(O)cc1)C(=O)N[C@@H](CCC(N)=O)C(=O)N1CC[C@H]1C(=O)N[C@@H](Cc1ccc(O)cc1)C(N)=O)[C@@H](C)O [AcFEWTPaWYQJY--NH2] (Ac-FEWTP[dA]WYQ[Aze]Y-NH2) | ≤ 100000 nM | ≤ 500 nM | – | –
CC(=O)N[C@@H](Cc1ccccc1)C(=O)N[C@@H](CCC(=O)O)C(=O)N[C@@H](Cc1c[nH]c2ccccc12)C(=O)N[C@H](C(=O)N1CCC[C@H]1C(=O)N[C@H](C)C(=O)N[C@@H](Cc1ccc(O)cc1)C(=O)N[C@@H](Cc1c[nH]c2ccccc12)C(=O)N[C@@H](CCC(N)=O)C(=O)N1CC[C@H]1C(=O)N[C@@H](Cc1ccc(O)cc1)C(N)=O)[C@@H](C)O [AcFEWTPaYWQJY--NH2] (Ac-FEWTP[dA]YWQ[Aze]Y-NH2) | ≤ 100000 nM | ≤ 500 nM | – | –
CC(=O)N[C@@H](Cc1ccccc1)C(=O)N[C@@H](CCC(=O)O)C(=O)N[C@@H](Cc1c[nH]c2ccccc12)C(=O)N[C@H](C(=O)N1CCC[C@H]1C(=O)N[C@H](C)C(=O)N[C@@H](Cc1ccc(O)cc1)C(=O)N[C@@H](Cc1ccc(O)cc1)C(=O)N[C@@H](CCC(N)=O)C(=O)N1CC[C@H]1C(=O)N[C@@H](Cc1ccc(O)cc1)C(N)=O)[C@@H](C)O [AcFEWTPaYYQJY--NH2] (Ac-FEWTP[dA]YYQ[Aze]Y-NH2) | ≤ 100000 nM | ≤ 500 nM | – | –
CC(C)C[C@H](NC(=O)[C@@H]1CCCN1C(=O)[C@H](CC(C)C)NC(=O)[C@H](C)NC(=O)[C@H](Cc1ccc(O)cc1)NC(=O)[C@@H]1CCN1C(=O)[C@H](CCC(N)=O)NC(=O)[C@H](Cc1ccc(O)cc1)NC(=O)[C@H](Cc1c[nH]c2ccccc12)NC(=O)CNC(=O)[C@@H]1CCCN1C(=O)[C@@H](NC(=O)[C@H](Cc1c[nH]c2ccccc12)NC(=O)[C@H](CCC(=O)O)NC(=O)[C@@H](N)Cc1ccccc1)[C@@H](C)O)C(=O)O [FEWTPGWYQJYALPL] (H-FEWTPGWYQ[Aze]YALPL-OH) | – | ≤ 500 nM | – | –
C[C@@H](O)[C@H](NC(=O)[C@H](Cc1c[nH]c2ccccc12)NC(=O)[C@H](CCC(=O)O)NC(=O)[C@@H](N)Cc1ccccc1)C(=O)N1CCC[C@H]1C(=O)NCC(=O)N[C@@H](Cc1ccc(O)cc1)C(=O)N[C@@H](Cc1c[nH]c2ccccc12)C(=O)N[C@@H](CCC(N)=O)C(=O)N1CC[C@H]1C(=O)N[C@@H](Cc1ccc(O)cc1)C(N)=O [FEWTPGYWQJY--NH2] (H-FEWTPGYWQ[Aze]Y-NH2) | ≤ 100000 nM | – | ≤ 500 nM | –
CC(C)C[C@H](NC(=O)[C@@H]1CCCN1C(=O)[C@H](CC(C)C)NC(=O)[C@H](C)NC(=O)[C@H](Cc1ccc(O)cc1)NC(=O)[C@@H]1CCN1C(=O)[C@H](CCC(N)=O)NC(=O)[C@H](Cc1c[nH]c2ccccc12)NC(=O)[C@H](Cc1ccc(O)cc1)NC(=O)[C@@H](NC(=O)[C@H](Cc1ccccc1)NC(=O)[C@@H](N)[C@@H](C)O)C(C)C)C(=O)O [TFVYWQJYALPL] (H-TFVYWQ[Aze]YALPL-OH) | > 100000 nM | – | ≤ 100000 nM | –
CC(C)C[C@H](NC(=O)[C@@H]1CCCN1C(=O)[C@H](CC(C)C)NC(=O)[C@H](C)NC(=O)[C@H](Cc1ccc(O)cc1)NC(=O)[C@@H]1CCCN1C(=O)[C@H](CCC(N)=O)NC(=O)[C@H](Cc1c[nH]c2ccccc12)NC(=O)[C@H](Cc1ccc(O)cc1)NC(=O)[C@H](NC(=O)[C@H](Cc1ccccc1)NC(=O)[C@@H](N)[C@@H](C)O)C(C)C)C(=O)O [TFvYWQPYALPL] (H-TF[dV]YWQPYALPL-OH) | > 100000 nM | – | – | –
CC(C)C[C@H](NC(=O)[C@@H]1CCCN1C(=O)[C@H](CC(C)C)NC(=O)[C@H](C)NC(=O)[C@H](Cc1ccc(O)cc1)NC(=O)[C@@H]1CCN1C(=O)[C@H](CCC(N)=O)NC(=O)[C@H](Cc1ccc(OP(=O)(O)O)cc1)NC(=O)[C@H](Cc1cccc2ccccc12)NC(=O)[C@@H](N)Cc1ccc(OP(=O)(O)O)cc1)C(=O)O [pY(1Nap)pYQJYALPL] (H-[pY][1Nal][pY]Q[Aze]YALPL-OH) | ≤ 500 nM | – | – | < 500 nM

Second part, led by results:

IC50 [1] | IC50 [2] | IC50 [3, 4] | Compound | IC50 [3]
500 nM | ≤ 500 nM | ≤ 500 nM | CC(=O)N[C@@H](Cc1ccccc1)C(=O)N[C@@H](CCC(=O)O)C(=O)N[C@@H](Cc1c[nH]c2ccccc12)C(=O)N[C@H](C(=O)N1CCC[C@H]1C(=O)NCC(=O)N[C@@H](Cc1c[nH]c2ccccc12)C(=O)N[C@@H](Cc1ccc(O)cc1)C(=O)N[C@@H](CCC(N)=O)C(=O)N1CC[C@H]1C(=O)N[C@@H](Cc1ccc(O)cc1)C(N)=O)[C@@H](C)O [AcFEWTPGWYQJY--NH2] (Ac-FEWTPGWYQ[Aze]Y-NH2) | –
≤ 500 nM | ≤ 500 nM | – | CC(C)C[C@H](NC(=O)[C@@H]1CCCN1C(=O)[C@H](CC(C)C)NC(=O)[C@H](C)NC(=O)[C@H](Cc1ccc(O)cc1)NC(=O)[C@@H]1CCN1C(=O)[C@H](CCC(N)=O)NC(=O)[C@H](Cc1c[nH]c2ccccc12)NC(=O)[C@H](Cc1ccc(O)cc1)NC(=O)CNC(=O)[C@@H]1CCCN1C(=O)[C@@H](NC(=O)[C@H](Cc1c[nH]c2ccccc12)NC(=O)[C@H](CCC(=O)O)NC(=O)[C@@H](N)Cc1ccccc1)[C@@H](C)O)C(=O)O [FEWTPGYWQJYALPL] (H-FEWTPGYWQ[Aze]YALPL-OH) | –
≤ 500 nM | ≤ 500 nM | – | CC(C)C[C@H](NC(=O)[C@@H]1CCCN1C(=O)[C@H](CC(C)C)NC(=O)[C@H](C)NC(=O)[C@H](Cc1ccc(O)cc1)NC(=O)[C@@H]1CCN1C(=O)[C@H](CCC(N)=O)NC(=O)[C@H](Cc1ccc(O)cc1)NC(=O)[C@H](Cc1ccc(O)cc1)NC(=O)CNC(=O)[C@@H]1CCCN1C(=O)[C@@H](NC(=O)[C@H](Cc1c[nH]c2ccccc12)NC(=O)[C@H](CCC(=O)O)NC(=O)[C@@H](N)Cc1ccccc1)[C@@H](C)O)C(=O)O [FEWTPGYYQJYALPL] (H-FEWTPGYYQ[Aze]YALPL-OH) | –
≤ 500 nM | – | ≤ 500 nM | DGYDRWRQSGERYWQPYALPL | –
≤ 500 nM | – | ≤ 500 nM | ETPFTWEESNAYYWQPYALPL | –
≤ 500 nM | – | – | FEWTPGYWQPYALPLSD-NH2 [FEWTPGYWQPYALPLSD--NH2] | –
≤ 500 nM | – | – | YIPFTWEESNAYYWQPYALPL | –
